Measurements from ChEMBL document CHEMBL4507290 (2021).

How the values were obtained:
[1] = target: Serine/threonine-protein kinase PAK 6 (Homo sapiens) (UniProt Q9NQU5); conditions: Compound concentration 1000.0 nM
[2] = target: STE20-like serine/threonine-protein kinase (Homo sapiens) (UniProt Q9H2G2); conditions: Compound concentration 1000.0 nM
[3] = tested on: Leucine-rich repeat serine/threonine-protein kinase 2 (Homo sapiens), Q5S007 [G2019S]; conditions: Compound concentration 1000.0 nM
[4] = tested on: Tyrosine-protein kinase ABL1 (Homo sapiens), P00519 [F317I]; conditions: Compound concentration 1000.0 nM
[5] = tested on: Receptor-type tyrosine-protein kinase FLT3 (Homo sapiens), P36888 [N841I]; conditions: Compound concentration 1000.0 nM
[6] = target: Cyclin-dependent kinase-like 3 (Homo sapiens) (UniProt Q8IVW4); conditions: Compound concentration 1000.0 nM
Cyclin-dependent kinase-like 3 (Homo sapiens), sequence (Q8IVW4 whole entry, looked up): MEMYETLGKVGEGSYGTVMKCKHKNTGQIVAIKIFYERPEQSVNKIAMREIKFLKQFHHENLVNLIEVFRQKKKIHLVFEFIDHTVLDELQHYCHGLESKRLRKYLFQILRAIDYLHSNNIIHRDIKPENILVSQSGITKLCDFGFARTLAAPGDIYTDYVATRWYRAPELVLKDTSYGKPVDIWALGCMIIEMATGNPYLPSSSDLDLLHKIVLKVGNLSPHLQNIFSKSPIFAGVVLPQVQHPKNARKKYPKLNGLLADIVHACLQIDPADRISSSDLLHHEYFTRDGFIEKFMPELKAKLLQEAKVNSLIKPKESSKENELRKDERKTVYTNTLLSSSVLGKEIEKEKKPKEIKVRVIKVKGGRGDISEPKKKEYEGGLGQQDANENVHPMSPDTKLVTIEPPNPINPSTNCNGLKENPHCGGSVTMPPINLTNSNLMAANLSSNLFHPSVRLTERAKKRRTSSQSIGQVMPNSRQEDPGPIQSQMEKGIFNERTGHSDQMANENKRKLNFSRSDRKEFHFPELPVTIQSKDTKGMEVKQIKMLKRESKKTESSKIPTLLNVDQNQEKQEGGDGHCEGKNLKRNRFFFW

[7] = target: Platelet-derived growth factor receptor beta (Homo sapiens) (UniProt P09619); conditions: Compound concentration 1000.0 nM
[8] = target: Cyclin-dependent kinase 2 (Homo sapiens) (UniProt P24941); conditions: Compound concentration 1000.0 nM
[9] = target: Calcium/calmodulin-dependent protein kinase type IV (Homo sapiens) (UniProt Q16566); conditions: Compound concentration 1000.0 nM
[10] = target: Mitogen-activated protein kinase 8 (Homo sapiens) (UniProt P45983); conditions: Compound concentration 1000.0 nM
[11] = target: Ribosomal protein S6 kinase alpha-4 (Homo sapiens) (UniProt O75676); conditions: Compound concentration 1000.0 nM
Ribosomal protein S6 kinase alpha-4 (Homo sapiens), sequence (O75676 whole entry, looked up): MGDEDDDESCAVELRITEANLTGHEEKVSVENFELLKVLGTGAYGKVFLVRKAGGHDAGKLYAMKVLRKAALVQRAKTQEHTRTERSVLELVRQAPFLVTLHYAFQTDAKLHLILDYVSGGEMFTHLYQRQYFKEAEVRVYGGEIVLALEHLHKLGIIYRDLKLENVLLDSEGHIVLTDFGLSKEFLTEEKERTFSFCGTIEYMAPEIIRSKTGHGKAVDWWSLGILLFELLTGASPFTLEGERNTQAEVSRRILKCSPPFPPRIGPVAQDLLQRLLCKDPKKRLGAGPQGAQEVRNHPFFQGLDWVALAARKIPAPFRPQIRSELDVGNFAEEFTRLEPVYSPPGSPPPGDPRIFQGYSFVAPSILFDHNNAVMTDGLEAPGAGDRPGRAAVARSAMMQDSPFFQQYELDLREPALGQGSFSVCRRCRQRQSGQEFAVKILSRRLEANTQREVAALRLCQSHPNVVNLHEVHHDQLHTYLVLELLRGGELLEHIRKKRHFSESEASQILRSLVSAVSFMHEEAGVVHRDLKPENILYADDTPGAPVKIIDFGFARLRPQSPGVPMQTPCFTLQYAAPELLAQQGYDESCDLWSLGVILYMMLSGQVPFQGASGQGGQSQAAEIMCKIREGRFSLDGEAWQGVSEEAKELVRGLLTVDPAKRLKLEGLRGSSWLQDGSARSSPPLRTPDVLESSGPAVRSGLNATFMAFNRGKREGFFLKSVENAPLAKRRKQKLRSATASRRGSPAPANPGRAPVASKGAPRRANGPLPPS

[12] = target: Serine/threonine-protein kinase NLK (Homo sapiens) (UniProt Q9UBE8); conditions: Compound concentration 1000.0 nM
Serine/threonine-protein kinase NLK (Homo sapiens), sequence (Q9UBE8 whole entry): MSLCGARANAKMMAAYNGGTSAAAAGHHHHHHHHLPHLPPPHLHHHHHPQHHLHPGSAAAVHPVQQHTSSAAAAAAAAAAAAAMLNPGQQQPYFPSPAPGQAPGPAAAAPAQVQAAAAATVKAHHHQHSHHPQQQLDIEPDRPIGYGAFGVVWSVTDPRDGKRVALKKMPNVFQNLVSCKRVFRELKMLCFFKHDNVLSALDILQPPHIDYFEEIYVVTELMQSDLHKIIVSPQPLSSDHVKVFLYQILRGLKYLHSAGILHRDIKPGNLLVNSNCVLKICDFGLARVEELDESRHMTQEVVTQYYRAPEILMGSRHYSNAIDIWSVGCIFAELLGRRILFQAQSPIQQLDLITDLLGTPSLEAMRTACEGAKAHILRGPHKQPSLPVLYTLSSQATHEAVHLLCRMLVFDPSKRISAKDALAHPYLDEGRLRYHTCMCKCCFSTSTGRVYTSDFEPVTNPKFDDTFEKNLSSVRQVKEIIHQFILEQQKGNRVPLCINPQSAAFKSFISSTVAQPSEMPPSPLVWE

[13] = target: Protein kinase C delta type (Homo sapiens) (UniProt Q05655); conditions: Compound concentration 1000.0 nM
[14] = tested on: Epidermal growth factor receptor (Homo sapiens), P00533 [L858R]; conditions: Compound concentration 1000.0 nM
[15] = target: Beta-adrenergic receptor kinase 1 (Homo sapiens) (UniProt P25098); conditions: Compound concentration 1000.0 nM
[16] = target: Serine/threonine-protein kinase Nek2 (Homo sapiens) (UniProt P51955); conditions: Compound concentration 1000.0 nM
[17] = target: Serine/threonine-protein kinase WNK4 (Homo sapiens) (UniProt Q96J92); conditions: Compound concentration 1000.0 nM
[18] = target: Receptor tyrosine-protein kinase erbB-2 (Homo sapiens) (UniProt P04626); conditions: Compound concentration 1000.0 nM
[19] = target: Peripheral plasma membrane protein CASK (Homo sapiens) (UniProt O14936); conditions: Compound concentration 1000.0 nM
[20] = target: Beta-1 adrenergic receptor (Homo sapiens) (UniProt P08588); conditions: Compound concentration 10.0 uM
[21] = tested on: Phosphatidylinositol 4,5-bisphosphate 3-kinase catalytic subunit alpha isoform (Homo sapiens), P42336 [E545K]; conditions: Compound concentration 1000.0 nM
[22] = target: Membrane-associated tyrosine- and threonine-specific cdc2-inhibitory kinase (Homo sapiens) (UniProt Q99640); conditions: Compound concentration 1000.0 nM
Membrane-associated tyrosine- and threonine-specific cdc2-inhibitory kinase (Homo sapiens), sequence (Q99640 whole entry): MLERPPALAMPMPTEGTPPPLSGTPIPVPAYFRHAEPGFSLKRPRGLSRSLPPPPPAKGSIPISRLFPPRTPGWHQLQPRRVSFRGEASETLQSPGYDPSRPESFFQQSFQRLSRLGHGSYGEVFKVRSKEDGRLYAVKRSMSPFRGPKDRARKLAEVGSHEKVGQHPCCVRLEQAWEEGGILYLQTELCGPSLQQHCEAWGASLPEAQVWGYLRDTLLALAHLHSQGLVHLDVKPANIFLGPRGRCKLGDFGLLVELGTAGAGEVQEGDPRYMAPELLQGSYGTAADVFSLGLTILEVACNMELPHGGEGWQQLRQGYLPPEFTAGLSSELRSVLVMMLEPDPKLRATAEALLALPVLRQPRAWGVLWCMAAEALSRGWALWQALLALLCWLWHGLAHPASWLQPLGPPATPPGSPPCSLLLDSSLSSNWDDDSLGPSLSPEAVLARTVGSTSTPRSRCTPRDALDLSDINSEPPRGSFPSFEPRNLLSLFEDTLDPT

[23] = target: Interleukin-1 receptor-associated kinase 1 (Homo sapiens) (UniProt P51617); conditions: Compound concentration 1000.0 nM
[24] = target: Calcium/calmodulin-dependent protein kinase type II subunit delta (Homo sapiens) (UniProt Q13557); conditions: Compound concentration 1000.0 nM
Calcium/calmodulin-dependent protein kinase type II subunit delta (Homo sapiens), sequence (Q13557 whole entry): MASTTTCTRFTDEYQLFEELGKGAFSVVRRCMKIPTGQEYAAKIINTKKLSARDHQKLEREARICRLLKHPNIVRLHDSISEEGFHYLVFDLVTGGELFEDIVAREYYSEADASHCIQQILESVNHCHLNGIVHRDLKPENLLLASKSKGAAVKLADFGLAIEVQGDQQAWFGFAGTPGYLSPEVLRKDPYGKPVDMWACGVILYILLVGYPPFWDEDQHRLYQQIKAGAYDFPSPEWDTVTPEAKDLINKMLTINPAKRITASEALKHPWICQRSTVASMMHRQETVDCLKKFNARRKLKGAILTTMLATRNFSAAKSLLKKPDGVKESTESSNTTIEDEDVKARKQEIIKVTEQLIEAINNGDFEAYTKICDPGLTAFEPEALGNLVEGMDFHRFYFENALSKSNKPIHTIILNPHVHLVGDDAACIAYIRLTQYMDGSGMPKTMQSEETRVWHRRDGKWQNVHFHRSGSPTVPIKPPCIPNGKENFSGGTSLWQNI

[25] = target: Misshapen-like kinase 1 (Homo sapiens) (UniProt Q8N4C8); conditions: Compound concentration 1000.0 nM
[26] = target: Serine/threonine-protein kinase RIO3 (Homo sapiens) (UniProt O14730); conditions: Compound concentration 1000.0 nM
[27] = target: Receptor-interacting serine/threonine-protein kinase 2 (Homo sapiens) (UniProt O43353); conditions: Compound concentration 1000.0 nM
[28] = target: Serine/threonine-protein kinase TAO3 (Homo sapiens) (UniProt Q9H2K8); conditions: Compound concentration 1000.0 nM
Serine/threonine-protein kinase TAO3 (Homo sapiens), sequence (Q9H2K8 whole entry): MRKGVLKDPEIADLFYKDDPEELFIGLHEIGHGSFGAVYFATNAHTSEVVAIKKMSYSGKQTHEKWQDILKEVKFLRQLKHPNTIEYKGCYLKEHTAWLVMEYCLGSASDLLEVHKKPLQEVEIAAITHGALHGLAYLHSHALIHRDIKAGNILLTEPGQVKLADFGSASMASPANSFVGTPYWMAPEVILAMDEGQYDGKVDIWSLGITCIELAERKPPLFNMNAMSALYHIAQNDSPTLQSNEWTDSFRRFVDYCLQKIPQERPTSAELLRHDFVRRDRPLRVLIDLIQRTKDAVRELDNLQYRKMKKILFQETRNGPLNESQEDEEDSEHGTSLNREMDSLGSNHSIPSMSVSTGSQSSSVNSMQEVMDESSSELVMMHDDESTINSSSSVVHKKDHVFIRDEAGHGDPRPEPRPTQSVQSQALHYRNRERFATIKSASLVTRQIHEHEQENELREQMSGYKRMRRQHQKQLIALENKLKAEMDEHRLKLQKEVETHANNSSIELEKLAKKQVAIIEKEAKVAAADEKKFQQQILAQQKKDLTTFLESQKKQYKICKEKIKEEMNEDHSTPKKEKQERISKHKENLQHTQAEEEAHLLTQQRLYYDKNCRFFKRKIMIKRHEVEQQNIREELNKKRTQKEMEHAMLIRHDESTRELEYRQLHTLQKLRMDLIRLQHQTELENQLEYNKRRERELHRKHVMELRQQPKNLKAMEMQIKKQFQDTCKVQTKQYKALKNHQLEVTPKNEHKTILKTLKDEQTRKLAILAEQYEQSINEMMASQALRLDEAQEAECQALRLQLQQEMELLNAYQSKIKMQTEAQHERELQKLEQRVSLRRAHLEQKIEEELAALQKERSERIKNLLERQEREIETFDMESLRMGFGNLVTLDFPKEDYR

[29] = target: Muscarinic acetylcholine receptor M2 (Homo sapiens) (UniProt P08172); conditions: Compound concentration 10.0 uM
[30] = target: Serine/threonine-protein kinase 38-like (Homo sapiens) (UniProt Q9Y2H1); conditions: Compound concentration 1000.0 nM
[31] = target: Serine/threonine-protein kinase Nek10 (Homo sapiens) (UniProt Q6ZWH5); conditions: Compound concentration 1000.0 nM
[32] = target: Beta-3 adrenergic receptor (Homo sapiens) (UniProt P13945); conditions: Compound concentration 10.0 uM
[33] = target: Vascular endothelial growth factor receptor 1 (Homo sapiens) (UniProt P17948); conditions: Compound concentration 1000.0 nM
[34] = target: GABA-A receptor; anion channel (Rattus norvegicus) (UniProt O09028+P15431+P18506+P18508+P19969+P20236+P23574+P23576+P28471+P28473+P30191+P62813+P63079+P63138+Q91ZM7+Q9ES14); conditions: Compound concentration 10.0 uM
[35] = target: Serine/threonine-protein kinase 17B (Homo sapiens) (UniProt O94768); conditions: Compound concentration 1000.0 nM
[36] = target: Serine/threonine-protein kinase mTOR (Homo sapiens) (UniProt P42345); conditions: Compound concentration 1000.0 nM
[37] = target: Casein kinase I isoform alpha (Homo sapiens) (UniProt P48729); conditions: Compound concentration 1000.0 nM
[38] = target: SRSF protein kinase 1 (Homo sapiens) (UniProt Q96SB4); conditions: Compound concentration 1000.0 nM
[39] = target: Activated CDC42 kinase 1 (Homo sapiens) (UniProt Q07912); conditions: Compound concentration 1000.0 nM
[40] = target: Serine/threonine-protein kinase 10 (Homo sapiens) (UniProt O94804); conditions: Compound concentration 1000.0 nM
[41] = target: Fibroblast growth factor receptor 1 (Homo sapiens) (UniProt P11362); conditions: Compound concentration 1000.0 nM
[42] = target: Glycogen synthase kinase-3 alpha (Homo sapiens) (UniProt P49840); conditions: Compound concentration 1000.0 nM
[43] = target: Serine/threonine-protein kinase RIO1 (Homo sapiens) (UniProt Q9BRS2); conditions: Compound concentration 1000.0 nM
[44] = target: Ephrin type-A receptor 6 (Homo sapiens) (UniProt Q9UF33); conditions: Compound concentration 1000.0 nM
Ephrin type-A receptor 6 (Homo sapiens), sequence (Q9UF33 whole entry): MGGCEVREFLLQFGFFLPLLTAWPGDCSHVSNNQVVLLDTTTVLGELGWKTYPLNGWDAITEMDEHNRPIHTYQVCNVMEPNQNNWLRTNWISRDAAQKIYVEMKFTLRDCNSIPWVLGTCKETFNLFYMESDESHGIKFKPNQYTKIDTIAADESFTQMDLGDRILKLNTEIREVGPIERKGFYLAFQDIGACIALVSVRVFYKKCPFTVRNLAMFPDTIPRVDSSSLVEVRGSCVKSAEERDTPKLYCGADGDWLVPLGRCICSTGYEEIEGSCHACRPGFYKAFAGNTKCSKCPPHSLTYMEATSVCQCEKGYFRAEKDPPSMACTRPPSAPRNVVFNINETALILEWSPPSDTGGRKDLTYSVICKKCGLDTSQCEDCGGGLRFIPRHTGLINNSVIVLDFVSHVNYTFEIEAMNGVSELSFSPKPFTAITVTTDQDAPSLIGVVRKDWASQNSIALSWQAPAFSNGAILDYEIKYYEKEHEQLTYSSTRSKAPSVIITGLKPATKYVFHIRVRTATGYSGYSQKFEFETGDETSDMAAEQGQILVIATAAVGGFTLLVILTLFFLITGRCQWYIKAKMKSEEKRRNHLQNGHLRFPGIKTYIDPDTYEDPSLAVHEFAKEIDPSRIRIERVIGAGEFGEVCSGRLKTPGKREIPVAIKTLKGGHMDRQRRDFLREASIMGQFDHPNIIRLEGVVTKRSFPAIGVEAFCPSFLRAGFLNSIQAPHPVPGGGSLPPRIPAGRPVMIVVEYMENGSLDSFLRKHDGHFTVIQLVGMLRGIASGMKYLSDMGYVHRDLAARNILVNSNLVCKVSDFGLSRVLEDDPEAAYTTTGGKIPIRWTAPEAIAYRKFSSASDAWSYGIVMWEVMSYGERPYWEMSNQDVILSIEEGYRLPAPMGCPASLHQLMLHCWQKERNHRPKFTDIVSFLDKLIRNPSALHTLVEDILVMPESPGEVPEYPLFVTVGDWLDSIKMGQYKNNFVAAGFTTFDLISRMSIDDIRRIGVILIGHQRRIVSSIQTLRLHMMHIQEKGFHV

CN([C@@H]1CCc2c(CC(=O)O)c3ccccc3n2C1)S(=O)(=O)c1ccc(F)cc1 [MK-7246]
inactive: residual activity [1] 100% | residual activity [2] 100% | residual activity [3] 100% | residual activity [4] 79% | residual activity [5] 100% | residual activity [6] 85% | residual activity [7] 97% | residual activity [8] 100% | residual activity [9] 85% | residual activity [10] 77% | residual activity [11] 100% | residual activity [12] 100% | residual activity [13] 100% | residual activity [14] 93% | residual activity [15] 86% | residual activity [16] 100% | residual activity [17] 100% | residual activity [18] 100% | residual activity [19] 66% | inhibition [20] -2.68% | residual activity [21] 86% | residual activity [22] 100% | residual activity [23] 78% | residual activity [24] 100% | residual activity [25] 100% | residual activity [26] 100% | residual activity [27] 92% | residual activity [28] 73% | inhibition [29] -0.4% | residual activity [30] 83% | residual activity [31] 85% | inhibition [32] 26.9% | residual activity [33] 100% | inhibition [34] 22.4% | residual activity [35] 85% | residual activity [36] 100% | residual activity [37] 80% | residual activity [38] 100% | residual activity [39] 100% | residual activity [40] 100% | residual activity [41] 100% | residual activity [42] 90% | residual activity [43] 100% | residual activity [44] 91%

CN([C@@H]1CCc2c(CC(=O)O)c3cc(S(C)(=O)=O)ccc3n2C1)S(=O)(=O)c1ccc(F)cc1
inactive: residual activity [1] 100% | residual activity [2] 100% | residual activity [3] 100% | residual activity [4] 75% | residual activity [5] 100% | residual activity [6] 100% | residual activity [7] 86% | residual activity [8] 100% | residual activity [9] 87% | residual activity [10] 90% | residual activity [11] 100% | residual activity [12] 100% | residual activity [13] 100% | residual activity [14] 91% | residual activity [15] 84% | residual activity [16] 100% | residual activity [17] 100% | residual activity [18] 100% | residual activity [19] 80% | inhibition [20] -6.18% | residual activity [21] 84% | residual activity [22] 100% | residual activity [23] 91% | residual activity [24] 100% | residual activity [25] 92% | residual activity [26] 94% | residual activity [27] 100% | residual activity [28] 73% | inhibition [29] -9.24% | residual activity [30] 88% | residual activity [31] 91% | inhibition [32] 0.851% | residual activity [33] 88% | inhibition [34] 10.8% | residual activity [35] 85% | residual activity [36] 79% | residual activity [37] 100% | residual activity [38] 100% | residual activity [39] 92% | residual activity [40] 100% | residual activity [41] 100% | residual activity [42] 100% | residual activity [43] 100% | residual activity [44] 91%
